{
  "source": "patent US10471059B2",
  "about": "“Compositions and methods of using tyrosine kinase inhibitors” (YALE UNIVERSITY, priority 2015, dated 2019)",
  "key": {"[1]": {"tested_on": "Ptpn11^D61G/+ X WT breeder", "assay": "Progeny from prenatal dasatinib treated Ptpn11D61G/+ X WT breeder", "description": "(§1) Vehicle-injected mice served as control.\nDasatinib was administered into pregnant mothers and amelioration of cardiac defects in NS mice was assessed. Dasatinib was administered at 0.1, 0.5 or 1.0 mg/kg daily interperitoneally into wild type pregnant mice intercrossed with NS mice, beginning at embryonic day 7 until postnatal day 9 (in nursing females). After postnatal day 10 (P10), dasatinib injections resumed directly into individual pups daily until 8-weeks (P56) after birth (FIG. 14a)."}, "Ptpn11^D61G/+ mice [2]": {"tested_on": "Ptpn11^D61G/+ mice", "assay": "Growth, facial dysmorphia and splenomegaly after postnatal dasatinib", "format": "in vivo", "settings": "postnatal 0.1 mg/kg/day, NS mice", "excerpt": "Differences within treatment groups were significant (p<0.001, Two-way ANOVA test) from 3-weeks to 8-weeks old. FIG. 19b is a graph showing body weight measured at P42. FIG. 19c is a graph showing body length measured at P42. FIG. 19d is a graph showing body weight measured at P56. […]. FIG. 19e is a graph showing body length measured at P56.\n(n=10˜16 for each group; Two-way ANOVA test).\nAll data represent mean±SEM. *, p<0.05; ***, p<0.001.\nas §1"}, "Ptpn11^D61G/+ mice [3]": {"tested_on": "Ptpn11^D61G/+ mice", "assay": "Heart tissue immunoblot for SERCA2A, Troponin I, Troponin T", "format": "in vivo", "settings": "postnatal dasatinib; NS mice", "excerpt": "Representative traces of cardiomyocyte dynamics for calcium transient traces (top) and their corresponding sarcomere leng shortening traces (bottom). FIG. 16b is a graph showing a summary of the data of relative calcium release (Rmag Ca^2+). FIG. 16c is a graph showing the fraction of sarcomere shortening (n=111˜162 cells from 3 mice for each group). FIG. 16d is an image showing heart tissue immunoblotted with anti-SERCA2A, Troponin I (tTnI), Troponin T (tTnT) and Tubulin antibodies. […] FIG. 16e is a graph showing SERCA2A expression. FIG. 16f is a graph showing Troponin I expression. FIG. 16g is a graph showing Troponin T. Expression was statistically assessed after normalization with tubulin (n=6 for each group).\nImmunoprecipitation and Immunoblotting—Cells or heart tissue were lysed on ice in lysis buffer (25 mM Tris-HCl, pH 7.4, 136 mM NaCl, 1 mM CaCl2, 1 mM MgCl2, 1% Nonidet P-40, 1 mM Na3VO4, 10 mM NaF, 1 mM benzamidine, 1 mM PMSF, 1 μg/ml pepstatin A, 5 μg/ml aprotinin, and 5 μg/ml leupeptin). Cell or tissue lysates were incubated at 4° C. for 30 min and clarified by centrifugation at 14,000 rpm at 4° C. for 10 min. Protein concentration was determined using the BCA reagent according to the manufacturer's instructions (Pierce). For immunoprecipitations, 500 μg of lysate was incubated with 1 μg of indicated antibodies at 4° C. for overnight. […]"}, "Ptpn11^Y279C/+ mice": {"tested_on": "Ptpn11^Y279C/+ mice", "assay": "Quantitative RT-PCR of heart RNA, NSML mice, postnatal dasatinib", "format": "in vivo", "description": "FIG. 25, comprising FIGS. 25a-25f, is a panel of graphs showing the improvement in molecular markers of cardiomyopathy and fibrosis in NSML (Y279C/+) mice following dasatinib treatment. Total heart RNA was isolated from postnatal vehicle- or dasatinib-treated (0.1 mg/kg/day) WT and Ptpn11^Y279C/+ mice (P42). Fibrosis marker genes, Col1a2 (FIG. 25a) and Col3a1 (FIG. 25b), markers of cardiomyopathy ANP (FIG. 25c) and cardiac fetal genes, Myh6 (αMHC) (FIG. 25d), Myh7 (bMHC) (FIG. 25e), and Myh6/Myh7 ratio (FIG. 25f) were measured by quantitative RT-PCR (n=6 for each group). All data represent mean±SEM. *, p<0.05; **, p<0.01; ***, p<0.001. (Two-way ANOVA test).\nRNA Extraction and Quantitative Real-Time PCR Analysis—RNA was isolated from mice heart using an RNeasy kit (Qiagen, CA) according to the manufacturer's instructions. A total of 1 μg RNA was reverse transcribed to generate cDNA using a reverse transcriptase PCR kit (Applied Biosystems, CA). Real-time quantitative PCR was carried out in triplicate using the Applied Biosystems 7500 Fast real-time PCR system and SYBR green gene expression master mix with following primer pairs.\nThe data presented in FIGS. 25a-25f represents dasatinib treatment starting at post-natal day 10 (P10) for 6 weeks (P42) in wild type (WT) and NSML (Ptpn11^Y279C/+) mice. Ptpn11^Y279C/+ were obtained from Dr. Kontaridis (Beth Israel Deaconess Hospital, Boston, Mass.) and bred as described (Marin, et al, J Clin. Invest., 121:1026-1043(2011)). Mice were treated with either vehicle or dasatinib at a dose of 0.1 mg/kg/day for 6 weeks […]. At the completion of the study, wild type and Ptpn11^Y279C/+ mice were sacrificed and total RNA from the hearts was isolated and qPCR was performed for the detection of mRNA expression for genes involved in the development of cardiomyopathy, Myh6 and Myh7 and the development of cardiac fibrosis, col1a2 and Col3a1."}, "tumor incidence": {"tested_on": "tumor incidence", "settings": "mice; cited from earlier work"}, "[4]": {"settings": "cited from earlier work"}, "[5]": {"settings": "postnatal 0.1 mg/kg/day from P10 for 6 weeks, Ptpn11Y279C/+ mice"}},
  "note": "“Also recorded” adds a separate entry of the source.",
  "data": [
    {"smiles": "Cc1nc(Nc2ncc(C(=O)Nc3c(C)cccc3Cl)s2)cc(N2CCN(CCO)CC2)n1.O", "note": "[Dasatinib, N-(2-chloro-6-methylphenyl)-2-[[6-[4-(2-hydroxyethyl)-1-piperazinyl]-2-methyl-4-pyrimidinyl]amino]-5-thiazole carboxamide monohydrate]", "values": [
      {"measurement": "adverse effects", "setting": "[1]; mouse, in vivo, ip, 0.1 mg/kg", "result": "no observable adverse effects"},
      {"measurement": "Dead pups", "setting": "[1]; prenatal dasatinib 0.1 mg/kg, number of pups", "result": 4},
      {"measurement": "embryonic lethality", "setting": "[1]; prenatal treatment at 0.5 and 1.0 mg/kg/per day i.p.", "result": "embryonic lethality"},
      {"measurement": "growth (body weight, body length)", "setting": "Ptpn11^D61G/+ mice [2]", "result": "did not improve"},
      {"measurement": "facial dismorphism", "setting": "Ptpn11^D61G/+ mice [2]; monohydrate", "result": "did not improve"},
      {"measurement": "splenomegaly", "setting": "Ptpn11^D61G/+ mice [2]; monohydrate", "result": "did not improve; also recorded: did not rescue"},
      {"measurement": "SERCA2A protein expression in cardiac tissue", "setting": "Ptpn11^D61G/+ mice [3]", "result": "completely normalized"},
      {"measurement": "TnT and TnI expression levels in heart", "setting": "Ptpn11^D61G/+ mice [3]", "result": "returned to those equivalent to vehicle-treated wild type mice"},
      {"measurement": "molecular markers of cardiomyopathy and fibrosis", "setting": "Ptpn11^Y279C/+ mice; 0.1 mg/kg/day, NSML (Y279C/+) mice", "result": "improvement"},
      {"measurement": "expression of ANP, Myh6 and Myh7", "setting": "Ptpn11^Y279C/+ mice; [5]", "result": "complete restoration back to wild type levels"},
      {"measurement": "ratio of Myh6/Myh7", "setting": "Ptpn11^Y279C/+ mice; [5]", "result": "restored to wild type levels"},
      {"measurement": "dosage effective in preventing tumor incidence", "setting": "tumor incidence", "result": "~20", "unit": "mg/kg"},
      {"measurement": "dose of therapeutic effects in humans", "setting": "[4]; humans", "result": "~2", "unit": "mg/kg"},
      {"measurement": "equivalent dose in mice of the human therapeutic dose", "setting": "[4]; mice equivalent", "result": "~24", "unit": "mg/kg"}
    ]}
  ]
}
